Like-named read-outs stand apart in the source and are kept apart here.
Key:
[1] = AT1001-045 study: plasma migalastat bioavailability of 150 mg migalastat HCl capsule with caffeine and sweetener beverages relative to water; format: in vivo, human (healthy subjects); settings: 280 mL of coffee containing approximately 190 mg caffeine at the time of dosing, compared to water
[2] = taken with food; cited from earlier work
[3] = AT1001-045 study: plasma migalastat bioavailability of 150 mg migalastat HCl capsule with caffeine and sweetener beverages relative to water; format: in vivo, human (healthy subjects); settings: for AUC0-t Ratio / AUC0-∞ Ratio / Cmax Ratio: percent scale; for Cmax / AUC(0-t) / AUC(0-inf) / Tmax / half-life: both sexes, human, plasma, po, 150 mg; for Cmax: read-out: Cmax GeoMean; for AUC(0-t): read-out: AUC0-t GeoMean; for AUC(0-inf): read-out: AUC0-∞ GeoMean; for Tmax: read-out: tmax Median; for half-life: read-out: t1/2 Mean (converted)
Description: The example describes the AT1001-045 study, which was an open-label study of the bioavailability, safety and tolerability of migalastat in combination with caffeine and sweeteners.
The primary objective was to evaluate plasma migalastat bioavailability of the 150 mg migalastat HCl capsule in a caffeinated beverage, a sucrose beverage, a combination caffeinated and sucrose beverage, an aspartame artificial sweetener beverage, and an acesulfame potassium artificial sweetener beverage relative to water in healthy subjects.
The primary endpoints were ANOVA comparisons of interest between each test treatment and reference treatment for Cmax, AUC0-t and AUC0-∞. The comparisons of interest were point estimate ratios and lower/upper 90% confidence intervals.
This was a single-center, single dose, randomized, open-label, 6-way crossover study. Each subject received a single oral dose of migalastat HCl 150 mg for each of 6 periods.
In randomized sequence, each subject received a 150 mg migalastat HCl capsule with a caffeinated beverage, a sucrose drink, a combination caffeinated and sucrose beverage, an aspartame artificial sweetener drink, an acesulfame potassium artificial sweetener drink, or water.
All study treatments were administered in the fasted condition (overnight+4 hours post-dose).
Each single dose administration was followed by a 72-hour PK sampling period which also served as the between-treatment washout interval.
Appropriate migalastat exposure ratios (Cmax and AUC) with corresponding 90% confidence intervals will be used to address the comparisons of interest: • Caffeine (test) vs. water (reference) • Sucrose (test) vs. water (reference) • Caffeine+Sucrose (test) vs. water (reference) • Aspartame (test) vs. water (reference) • Acesulfame K (test) vs. water (reference)
• Study Population: male and female healthy subjects 18 to 45 years of age. • Sample Size: 20 subjects balanced for gender. • Dose: A single 150 mg capsule of migalastat hydrochloride, provided as GALAFOLD®.
The following test treatments were prepared: • Caffeinated beverage: 8 oz of caffeinated tea; nothing added; administered warm (40 to 50 degrees C.) and consumed within 10 minutes • Sucrose drink: 8 oz sucrose solution prepared with 26 grams sucrose, chilled before drug administration, and consumed within 10 minutes • Equivalent to sucrose content in one 8 oz serving of cane sugar-containing Coca-Cola® • Caffeinated+Sucrose drink: 8 oz caffeinated/sucrose beverage, chilled before drug administration, and consumed within 10 minutes (e.g., Jolt®) • Aspartame: 8 oz aspartame solution prepared with 125 mg aspartame, chilled before drug administration, and consumed within 10 minutes • Equivalent to aspartame content in one 8 oz can of Diet Coke® • Acesulfame K: 8 oz acesulfame K solution prepared with 30 mg acesulfame K, chilled before drug administration, and consumed within 10 minutes • Equivalent to acesulfame K content in one 8 oz can of Diet Coke® or Coca-Cola® Zero Sugar

[4] = Acesulfame K (test) vs. water (reference)
[5] = Aspartame (test) vs. water (reference)
[6] = Caffeine (test) vs. water (reference)
[7] = Caffeine + Sucrose (test) vs. water (reference)
[8] = Sucrose (test) vs. water (reference)
[9] = single oral 150 mg migalastat HCl capsule, fasted, with Acesulfame K drink
[10] = single oral 150 mg migalastat HCl capsule, fasted, with Aspartame drink
[11] = single oral 150 mg migalastat HCl capsule, fasted, with Caffeine + Sucrose drink
[12] = single oral 150 mg migalastat HCl capsule, fasted, with Caffeine beverage
[13] = single oral 150 mg migalastat HCl capsule, fasted, with Sucrose drink
[14] = single oral 150 mg migalastat HCl capsule, fasted, with water (reference)

OC[C@H]1NC[C@H](O)[C@@H](O)[C@H]1O [migalastat, (2R,3S,4R,5S)-2-(hydroxymethyl) piperdine-3,4,5-triol]
mean reduction in Cmax [1]: 60% | decrease in migalastat exposure [2]: approximately 40% | mean reduction in AUC0-∞ ([3]; 280 mL of coffee containing approximately 190 mg caffeine at the time of dosing, compared to water): 57% | AUC0-t Ratio [3, 4]: 93.9 | AUC0-∞ Ratio [3, 4]: 96.1 | Cmax Ratio [3, 4]: 92.3 | AUC0-t Ratio [3, 5]: 104.9 | AUC0-∞ Ratio [3, 5]: 102.9 | Cmax Ratio [3, 5]: 103.3 | AUC0-t Ratio [3, 6]: 43.1 | AUC0-∞ Ratio [3, 6]: 45.8 | Cmax Ratio [3, 6]: 39.9 | AUC0-t Ratio [3, 7]: 46.9 | AUC0-∞ Ratio [3, 7]: 47.7 | Cmax Ratio [3, 7]: 45.9 | AUC0-t Ratio [3, 8]: 92.2 | AUC0-∞ Ratio [3, 8]: 91.8 | Cmax Ratio [3, 8]: 95.3 | Cmax ([3]; single oral 150 mg migalastat HCl capsule, fasted, healthy subjects, with water (reference)): 1330 ng/mL | AUC(0-t) [3, 9]: 8120 ng·h/mL | AUC(0-inf) [3, 9]: 8640 ng·h/mL | Cmax [3, 9]: 1220 ng/mL | Tmax [3, 9]: 4 h | AUC(0-t) [3, 10]: 9080 ng·h/mL | AUC(0-inf) [3, 10]: 9080 ng·h/mL | Cmax [3, 10]: 1370 ng/mL | half-life [3, 10]: 8.1 h | Tmax [3, 10]: 4 h | AUC(0-t) [3, 11]: 4050 ng·h/mL | AUC(0-inf) [3, 11]: 4270 ng·h/mL | Cmax [3, 11]: 611 ng/mL | half-life [3, 11]: 8.8 h | Tmax [3, 11]: 3 h | AUC(0-t) [3, 12]: 3720 ng·h/mL | AUC(0-inf) [3, 12]: 4100 ng·h/mL | Cmax [3, 12]: 529 ng/mL | half-life [3, 12]: 10.2 h | Tmax [3, 12]: 3 h | AUC(0-t) [3, 13]: 7960 ng·h/mL | AUC(0-inf) [3, 13]: 8030 ng·h/mL | Cmax [3, 13]: 1260 ng/mL | half-life [3, 13]: 7.8 h | Tmax [3, 13]: 3 h | AUC(0-t) [3, 14]: 8620 ng·h/mL | AUC(0-inf) [3, 14]: 8610 ng·h/mL | half-life [3, 14]: 7.5 h | Tmax [3, 14]: 4 h | rate of absorption (tmax) effect ([3]; coffee or sweetened beverages in comparison to water): not affected | AUC0-∞ GeoMean [3, 9]: 8621 ng·h/mL | t1/2 Mean [3, 9]: 7.2 h | AUC0-∞ GeoMean [3, 10]: 9043 ng·h/mL | AUC0-∞ GeoMean [3, 13]: 8008 ng·h/mL | AUC0-∞ GeoMean [3, 14]: 8570 ng·h/mL | mean difference in AUC (decrease) ([3]; sucrose vs water): 8% | bioequivalence to water (90% CI within 80% to 125%) ([3]; with acesulfame K): bioequivalent to water | bioequivalence to water (90% CI within 80% to 125%) ([3]; with aspartame): bioequivalent to water | bioequivalence to water (90% CI within 80% to 125%) ([3]; with sucrose): very close to bioequivalent

— patent US20240197706A1, “METHODS OF IMPROVING THE PHARMACOKINETICS OF MIGALASTAT” (Amicus Therapeutics, Inc., priority 2022, published 2024)
